Reference: patent US9980943B2, “Methods of treating muscular dystrophy” (BOARD OF REGENTS OF THE NEVADA SYSTEM OF HIGHER EDUCATION, …, priority 2013, dated 2018)
Where two headings read alike, the source gives them in different places.

How the values were obtained:
[1] = test system: α7 integrin (LacZ reporter in α7LacZ+/− myoblasts); assay: qHTS of the LOPAC library and MLSMR (online screen, α7LacZ+/− myoblasts); details: for activation at 0.307 µM / activation at 1.53 µM / activation at 7.66 µM / activation at 38.3 µM / Emax / EC50: Mus musculus, Myoblast; for activation at 0.307 µM: read-out: Activity at 0.307 uM [%] **; for activation at 1.53 µM: read-out: Activity at 1.530 uM [%] **; for activation at 7.66 µM: read-out: Activity at 7.660 uM [%] **; for activation at 38.3 µM: read-out: Activity at 38.30uM [%] **; for EC50: read-out: Fit LogAC50 (converted); for Online Screen Score / Online Screen Fold-change: MLSMR qHTS, myoblasts
[2] = test system: α7 integrin (LacZ reporter in α7+/LacZ myotubes); assay: Myotube α7 integrin FDG assay (Burkin assay in myotubes, 96-well); assay type: cell-based, mouse; details: myotubes; for EC50: nonlinear regression of dose-response curves, read-out: EC50 α7+/LacZ MT; for MT FOLD INCREASE: maximum response
[3] = test system: α7 integrin (LacZ reporter in α7βgal+/− myoblasts); assay: Myoblast α7+/LacZ integrin FDG assay (Burkin assay in myoblasts, 96-well); assay type: cell-based, mouse; details: α7+/LacZ myoblasts, 96-well
[4] = test system: β-galactosidase in CMV-LacZ C2C12 myotubes; assay: CMV-LacZ secondary screen in C2C12 myotubes (β-Gal stabilizing assay); assay type: cell-based, mouse; details: for CMV-LACZ in Myotubes, signal relative to DMSO: C2C12 CMV-LacZ myotubes, fold relative to DMSO; for CMV-LACZ in Myotubes, value relative to DMSO: SU9516 analogs, C2C12 CMV-LacZ, N=2
In short: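 Dose-response runs at 0.5–40 μM (0.5, 1, 5, 10, 20, 40 μM; N=2 per point) used a clonal C2C12 line carrying CMV-LacZ. Cells were assayed as myoblasts or as differentiated myotubes, and β-galactosidase levels were read with the FDG fluorogenic substrate.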

[5] = test system: β-galactosidase in CMV-LacZ C2C12 myoblasts; assay: CMV-LacZ secondary screen in C2C12 myoblasts (β-Gal stabilizing assay); assay type: cell-based, mouse; details: for CMV-LACZ in Myoblasts (β-galactosidase activity relative to DMSO): CMV-LacZ C2C12 myoblasts; for CMV-LACZ in Myoblasts, value relative to DMSO: SU9516 analogs, C2C12 CMV-LacZ, N=2
Text: In order to determine compounds that acted to stabilize β-gal in myogenic cells, a CMV-LacZ C2C12 cell line was used in a secondary screen. The EGFP gene from the pEGFP (Clontech) vector was replaced by LACZ PCR product with digests of the vector/PCR product performed using EcoRI (NEB) and NotI (NEB) and ligated using T4 DNA Ligase (NEB) following standard procedures to produce the CMV-LACZ vector. The LACZ gene was generated by PCR from the pBK-RSV (Stratagene) vector using primers LACZ EcoRI F- and LACZ NotI R-. The CMV-LACZ vector was then digested with AfIII (NEB) to linearize the construct, which was then transfected in C2C12 myoblasts using Lipofectamine 2000 (Invitrogen) following the manufacturer's instructions. […] Clonal lines were selected and screened for βgal levels using the myoblast FDG assay.
The assays were used the original 96-well format and new dose-response curves for myoblasts (N=3-6 replicates for each data point), myotubes (N=3-6 replicates for data point), and CMV-LacZ secondary assay (N=2 replicates for each data point) using concentrations of 0.5 μM, 1 μM, 5 μM, 10 μM, 20 μM, and 40 μM (Tables 9-16).

[6] = 48 h, read-out: Fit Infinite Activity [%]

O=C(CNC(=O)c1cccc(F)c1)N/N=C/c1cc(Br)ccc1OCc1ccccc1 [Compound 216]
activation at 0.307 µM ([1]; 48 h): 8.28%
activation at 1.53 µM ([1]; 48 h): 20.8%
activation at 7.66 µM ([1]; 48 h): 44%
activation at 38.3 µM ([1]; 48 h): 71.7%
Emax [1, 6]: 94.4%
EC50 [1]: 10 µM
Emax ([1]; read-out: Max Response [%]): 71.7%

COc1ccc(CCNC(=O)c2cc(-c3cc(C)ccc3O)n[nH]2)cc1OC [Compound 217]
activation at 0.307 µM ([1]; 48 h): 10.4%
activation at 1.53 µM ([1]; 48 h): 9.29%
activation at 7.66 µM ([1]; 48 h): 27.5%
activation at 38.3 µM ([1]; 48 h): 65.2%
Emax [1, 6]: 66.2%
EC50 [1]: 10 µM
Emax ([1]; read-out: Max Response [%]): 65.2%

N#Cc1ccc(Sc2nc3ccccc3[nH]2)cc1C#N [Compound 218]
activation at 0.307 µM ([1]; 48 h): 14%
activation at 1.53 µM ([1]; 48 h): 13.1%
activation at 7.66 µM ([1]; 48 h): 29.8%
activation at 38.3 µM ([1]; 48 h): 71.5%
Emax [1, 6]: 71.8%
EC50 [1]: 10 µM
Emax ([1]; read-out: Max Response [%]): 71.5%

CC(=O)Nc1nonc1-c1nc2ccccc2n1CCC(C)C [Compound 219]
activation at 0.307 µM ([1]; 48 h): -8.22%
activation at 1.53 µM ([1]; 48 h): -3.05%
activation at 7.66 µM ([1]; 48 h): 21.4%
activation at 38.3 µM ([1]; 48 h): 66%
Emax [1, 6]: 76.4%
Emax ([1]; read-out: Max Response [%]): 66%

C=CCn1c(COc2ccc(Cl)cc2)nnc1SCc1ccc(C#N)cc1 [Compound 220]
activation at 0.307 µM ([1]; 48 h): 7.14%
activation at 1.53 µM ([1]; 48 h): 9.51%
activation at 7.66 µM ([1]; 48 h): 27.6%
activation at 38.3 µM ([1]; 48 h): 93.8%
Emax [1, 6]: 95.1%
Emax ([1]; read-out: Max Response [%]): 93.8%

O=C(Cn1nc(-c2ccc(Cl)cc2)ccc1=O)N1CCC2(CC1)OCCO2 [Compound 221]
activation at 0.307 µM ([1]; 48 h): 6.38%
activation at 1.53 µM ([1]; 48 h): 7.87%
activation at 7.66 µM ([1]; 48 h): 16.8%
activation at 38.3 µM ([1]; 48 h): 66.1%
Emax [1, 6]: 66.5%
Emax ([1]; read-out: Max Response [%]): 66.1%

CCOC(=O)/C(C(=O)c1ccccc1)=C(\N)NCCO [Compound 222]
activation at 0.307 µM ([1]; 48 h): 9.44%
activation at 1.53 µM ([1]; 48 h): 9.77%
activation at 7.66 µM ([1]; 48 h): 16.5%
activation at 38.3 µM ([1]; 48 h): 66.5%
Emax [1, 6]: 66.8%
Emax ([1]; read-out: Max Response [%]): 66.5%

O=c1[nH]c(CN2CCCCC2)nc2c1C1(CCCCC1)Cc1ccccc1-2 [MLS000028160-01]
Burkin Assay in Myotubes, α7 integrin LacZ reporter signal relative to DMSO ([2]; 0.5 uM): 1.085
Burkin Assay in Myotubes, α7 integrin LacZ reporter signal relative to DMSO ([2]; 1 uM): 1.102
Burkin Assay in Myotubes, α7 integrin LacZ reporter signal relative to DMSO ([2]; 5 uM): 0.9162
Burkin Assay in Myotubes, α7 integrin LacZ reporter signal relative to DMSO ([2]; 10 uM): 0.9598
Burkin Assay in Myotubes, α7 integrin LacZ reporter signal relative to DMSO ([2]; 20 uM): 0.9049
Burkin Assay in Myotubes, α7 integrin LacZ reporter signal relative to DMSO ([2]; 40 uM): 0.8112
Burkin Assay in Myoblasts, signal relative to DMSO ([3]; 0.5 uM): 1.037
Burkin Assay in Myoblasts, signal relative to DMSO ([3]; 1 uM): 0.9873
Burkin Assay in Myoblasts, signal relative to DMSO ([3]; 5 uM): 0.9805
Burkin Assay in Myoblasts, signal relative to DMSO ([3]; 10 uM): 0.8521
Burkin Assay in Myoblasts, signal relative to DMSO ([3]; 20 uM): 1.107
Burkin Assay in Myoblasts, signal relative to DMSO ([3]; 40 uM): 0.8535
CMV-LACZ in Myotubes, signal relative to DMSO ([4]; 0.5 uM): 1.0524
CMV-LACZ in Myotubes, signal relative to DMSO ([4]; 1 uM): 1.0362
CMV-LACZ in Myotubes, signal relative to DMSO ([4]; 5 uM): 1.0348
CMV-LACZ in Myotubes, signal relative to DMSO ([4]; 10 uM): 0.9249
CMV-LACZ in Myotubes, signal relative to DMSO ([4]; 20 uM): 1.0471
CMV-LACZ in Myotubes, signal relative to DMSO ([4]; 40 uM): 1.1976
CMV-LACZ in Myoblasts (β-galactosidase activity relative to DMSO) ([5]; 0.5 uM): 1.0663
CMV-LACZ in Myoblasts (β-galactosidase activity relative to DMSO) ([5]; 1 uM): 0.9029
CMV-LACZ in Myoblasts (β-galactosidase activity relative to DMSO) ([5]; 5 uM): 0.9378
CMV-LACZ in Myoblasts (β-galactosidase activity relative to DMSO) ([5]; 10 uM): 1.2759
CMV-LACZ in Myoblasts (β-galactosidase activity relative to DMSO) ([5]; 20 uM): 0.8967
CMV-LACZ in Myoblasts (β-galactosidase activity relative to DMSO) ([5]; 40 uM): 0.8600

N#Cc1nc(COc2ccccc2)oc1N1CCCC1 [MLS000036988-01]
Burkin Assay in Myotubes, α7 integrin LacZ reporter signal relative to DMSO ([2]; 0.5 uM): 0.8553
Burkin Assay in Myotubes, α7 integrin LacZ reporter signal relative to DMSO ([2]; 1 uM): 0.7577
Burkin Assay in Myotubes, α7 integrin LacZ reporter signal relative to DMSO ([2]; 5 uM): 0.8099
Burkin Assay in Myotubes, α7 integrin LacZ reporter signal relative to DMSO ([2]; 10 uM): 0.8223
Burkin Assay in Myotubes, α7 integrin LacZ reporter signal relative to DMSO ([2]; 20 uM): 0.4172
Burkin Assay in Myotubes, α7 integrin LacZ reporter signal relative to DMSO ([2]; 40 uM): 0.104
Burkin Assay in Myoblasts, signal relative to DMSO ([3]; 0.5 uM): 1.189
Burkin Assay in Myoblasts, signal relative to DMSO ([3]; 1 uM): 1.0825
Burkin Assay in Myoblasts, signal relative to DMSO ([3]; 5 uM): 0.8657
Burkin Assay in Myoblasts, signal relative to DMSO ([3]; 10 uM): 0.8256
Burkin Assay in Myoblasts, signal relative to DMSO ([3]; 20 uM): 0.9023
Burkin Assay in Myoblasts, signal relative to DMSO ([3]; 40 uM): 0.6581
CMV-LACZ in Myotubes, signal relative to DMSO ([4]; 0.5 uM): 0.9867
CMV-LACZ in Myotubes, signal relative to DMSO ([4]; 1 uM): 0.8905
CMV-LACZ in Myotubes, signal relative to DMSO ([4]; 5 uM): 0.8979
CMV-LACZ in Myotubes, signal relative to DMSO ([4]; 10 uM): 1.0868
CMV-LACZ in Myotubes, signal relative to DMSO ([4]; 20 uM): 0.7116
CMV-LACZ in Myotubes, signal relative to DMSO ([4]; 40 uM): 0.5021
CMV-LACZ in Myoblasts (β-galactosidase activity relative to DMSO) ([5]; 0.5 uM): 1.0767
CMV-LACZ in Myoblasts (β-galactosidase activity relative to DMSO) ([5]; 1 uM): 1.0846
CMV-LACZ in Myoblasts (β-galactosidase activity relative to DMSO) ([5]; 5 uM): 0.9702
CMV-LACZ in Myoblasts (β-galactosidase activity relative to DMSO) ([5]; 10 uM): 1.0435
CMV-LACZ in Myoblasts (β-galactosidase activity relative to DMSO) ([5]; 20 uM): 0.8796
CMV-LACZ in Myoblasts (β-galactosidase activity relative to DMSO) ([5]; 40 uM): 0.6578

CN(C)c1ccnc2sc(C(N)=O)c(N)c12 [MLS000532969]
EC50 [2]: 2.2 µM
Online Screen Score [1]: 44

CC1CCCCN1c1ncnc(N)c1[N+](=O)[O-] (stereo not shown) [MLS000683234]
MT FOLD INCREASE [2]: 1.7 fold
EC50 [2]: 27 µM
Online Screen Fold-change [1]: 2.6
Online Screen Score [1]: 46

O=C(Nc1ccc(N2CCN(C(=O)c3ccccc3F)CC2)cc1)c1cncc(Br)c1 [MLS001060533]
MT FOLD INCREASE [2]: 1.5 fold
EC50 [2]: 4.7 µM
Online Screen Fold-change [1]: 1.9
Online Screen Score [1]: 42

C[C@H]1CNC(=O)c2c(C(=O)Nc3ccc(CNC(=O)OC(C)(C)C)cc3)ncn21 [MLS003126425]
MT FOLD INCREASE [2]: 2.0 fold
EC50 [2]: 7 µM
Online Screen Fold-change [1]: 1.9
Online Screen Score [1]: 43

Cc1cc(C)c(/C=C2\C(=O)Nc3ccccc32)[nH]1 [NCGC00094381-04]
CMV-LACZ in Myotubes, value relative to DMSO ([4]; 0.5 uM): 1.0845
CMV-LACZ in Myotubes, value relative to DMSO ([4]; 1 uM): 1.4927
CMV-LACZ in Myotubes, value relative to DMSO ([4]; 5 uM): 1.2849
CMV-LACZ in Myotubes, value relative to DMSO ([4]; 10 uM): 1.1010
CMV-LACZ in Myotubes, value relative to DMSO ([4]; 20 uM): 3.8710
CMV-LACZ in Myotubes, value relative to DMSO ([4]; 40 uM): 8.1220
CMV-LACZ in Myoblasts, value relative to DMSO ([5]; 0.5 uM): 1.0763
CMV-LACZ in Myoblasts, value relative to DMSO ([5]; 5 uM): 1.1366
CMV-LACZ in Myoblasts, value relative to DMSO ([5]; 10 uM): 0.9770
CMV-LACZ in Myoblasts, value relative to DMSO ([5]; 20 uM): 0.9330
CMV-LACZ in Myoblasts, value relative to DMSO ([5]; 40 uM): 0.9697
